Experimental data from the NIST ThermoML archive (doi:10.1016/j.tca.2017.09.013).
Numbers after ± are expanded uncertainties.

Key:
[1] = molar heat capacity at constant pressure; details: 101.33 kPa, Metastable liquid, Small sample (50 mg) DSC
[2] = Molar enthalpy of transition or fusion; details: Crystal; DSC

| Normal melting temperature (Crystal, DTA) [°C] | Glass transition temperature (Glass, DSC) [°C] | molar heat capacity at constant pressure ([1]; 408 K) [J/K/mol] | molar heat capacity at constant pressure ([1]; 413 K) [J/K/mol] | molar heat capacity at constant pressure ([1]; 418 K) [J/K/mol] | molar heat capacity at constant pressure ([1]; 423 K) [J/K/mol] | molar heat capacity at constant pressure ([1]; 428 K) [J/K/mol] | Molar enthalpy of transition or fusion [2] [kcal/mol] | Compound |
| --- | --- | --- | --- | --- | --- | --- | --- | --- |
| 334 ± 3 | 115 ± 3 | 268 ± 36 | 269 ± 38 | 271 ± 40 | 272 ± 42 | 274 ± 44 | 8.34 ± 0.55 | Nc1cc[nH]c(=O)n1 [4-amino-2-hydroxypyrimidine] |
|  |  |  |  |  |  |  | 6.52 ± 0.693 | c1ccc2cc3ccccc3cc2c1 [anthracene] |
